Assay [1] concerns the target T1, Nluc-A1R (adenosine A1 receptor) (Homo sapiens, UniProt P30542, Y271A).
T1 sequence (P30542 1-326 Y271A): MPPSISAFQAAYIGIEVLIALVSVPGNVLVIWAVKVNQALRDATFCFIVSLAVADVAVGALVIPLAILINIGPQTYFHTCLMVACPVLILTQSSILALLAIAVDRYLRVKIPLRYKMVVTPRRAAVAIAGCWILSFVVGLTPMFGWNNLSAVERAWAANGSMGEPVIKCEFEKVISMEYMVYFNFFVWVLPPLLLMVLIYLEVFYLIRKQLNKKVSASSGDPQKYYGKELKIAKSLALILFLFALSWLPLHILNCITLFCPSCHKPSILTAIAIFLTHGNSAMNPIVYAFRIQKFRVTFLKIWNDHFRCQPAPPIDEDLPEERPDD
Nature of the assay: NanoBRET competition binding, live HEK […] cells. It counts as cell-based. (Bioluminescence resonance energy transfer reports proximity on the nanometre scale.)

Assay [2] addresses T2, Nluc-A1R (adenosine A1 receptor) L253T (Homo sapiens, UniProt P30542, L253T).
T2 sequence (P30542 1-326 L253T): T1 sequence (P30542 1-326 Y271A) with L253T, A271Y
Nature of the assay: cell-based. More on the design: species or system HEK 293.

Each structure is given as a SMILES string. Residue numbers refer to the chain shown, from its start.

The Ki is a dissociation constant, usually derived from enzyme kinetics or from competition with a known ligand. Lower therefore signals a stronger hold on the target.

Consider `OC[C@H]1O[C@@H](n2cnc3c(N[C@@H]4CCC[C@H]4O)ncnc32)[C@H](O)[C@@H]1O` [compound 6, HOCPA], for which the results for the Ki in assay [1] and in assay [2] were 7.08 µM and 2.04 µM, respectively.

For the origin of these results see paper doi:10.1101/2020.10.22.350827v1 (biorxiv, 2020).
